# Where “and” joins values, the source holds several entries; their conditions need not be identical. Identical values can stand only once. Results filed as inconclusive are left out.
# Test system: BDF1 mice, s.c. Lewis lung carcinoma, T/C %
# Experiment: NCI In Vivo Anticancer Drug Screen. Data for tumor model Lewis Lung Carcinoma (subcutaneous) in B6D2F1 (BDF1) mice
# In short: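 Antitumor effect in vivo is scored from survival or tumor burden, reported as treated relative to vehicle controls.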
# [1] = endpoint: mean tumor weight, dose: 12.0 mg/kg/injection, schedule: Q01DX011 (ip), vehicle: saline, higher = larger tumour
# [2] = endpoint: mean tumor weight, dose: 25.0 mg/kg/injection, schedule: Q01DX011 (ip), vehicle: saline, higher = larger tumour
smiles,measurement,setting,value
O=P1(N(CCCl)CCCl)NCCCO1 (stereo not given),T/C,"endpoint: mean survival time, dose: 100.0 mg/kg/injection, schedule: Q08DX002 (ip), vehicle: saline, higher = longer survival",188 % of control
same,T/C,"endpoint: mean survival time, dose: 300.0 mg/kg/injection, schedule: Q08DX002 (ip), vehicle: saline, higher = longer survival",117 % of control
same,T/C,"endpoint: mean tumor weight (est.), dose: 65.0 mg/kg/injection, schedule: Q01DX009 (ip), vehicle: saline, higher = larger tumour",3 % of control
same,T/C,"endpoint: mean tumor weight (est.), dose: 108.0 mg/kg/injection, schedule: Q01DX001 (ip), vehicle: saline, higher = larger tumour",19 % of control and 37 % of control
same,T/C,"endpoint: mean tumor weight (est.), dose: 300.0 mg/kg/injection, schedule: Q01DX001 (ip), vehicle: saline, higher = larger tumour",15 % of control
same,T/C,"endpoint: mean tumor weight, dose: 6.25 mg/kg/injection, schedule: Q01DX011 (ip), vehicle: saline, higher = larger tumour",70 % of control
same,T/C,[1],55 % of control
same,T/C,"endpoint: mean tumor weight, dose: 12.5 mg/kg/injection, schedule: Q01DX011 (ip), vehicle: saline, higher = larger tumour",74 % of control
same,T/C,"endpoint: mean tumor weight, dose: 17.0 mg/kg/injection, schedule: Q01DX011 (ip), vehicle: saline, higher = larger tumour",43 % of control
same,T/C,"endpoint: mean tumor weight, dose: 22.5 mg/kg/injection, schedule: Q01DX011 (ip), vehicle: saline, higher = larger tumour",19 % of control and 40 % of control
same,T/C,[2],3 % of control and 5 % of control and 12 % of control
same,T/C,"endpoint: mean tumor weight, dose: 45.0 mg/kg/injection, schedule: Q01DX011 (ip), vehicle: saline, higher = larger tumour",2 % of control and 11 % of control
same,T/C,"endpoint: median survival time, dose: 5.0 mg/kg/injection, schedule: Q01DX011 (ip), vehicle: saline, higher = longer survival",107 % of control
same,T/C,"endpoint: median survival time, dose: 10.0 mg/kg/injection, schedule: Q01DX001 (ip), vehicle: saline, higher = longer survival",100 % of control
same,T/C,"endpoint: median survival time, dose: 10.0 mg/kg/injection, schedule: Q01DX005 (ip), vehicle: saline, higher = longer survival",153 % of control and 160 % of control
same,T/C,"endpoint: median survival time, dose: 10.0 mg/kg/injection, schedule: Q01DX009 (ip), vehicle: saline, higher = longer survival",90 % of control
same,T/C,"endpoint: median survival time, dose: 10.0 mg/kg/injection, schedule: Q01DX011 (ip), vehicle: saline, higher = longer survival",89 % of control
same,T/C,"endpoint: median survival time, dose: 20.0 mg/kg/injection, schedule: Q01DX001 (ip), vehicle: saline, higher = longer survival",113 % of control
same,T/C,"endpoint: median survival time, dose: 20.0 mg/kg/injection, schedule: Q01DX005 (ip), vehicle: saline, higher = longer survival",113 % of control
same,T/C,"endpoint: median survival time, dose: 20.0 mg/kg/injection, schedule: Q01DX009 (ip), vehicle: saline, higher = longer survival",104 % of control
same,T/C,"endpoint: median survival time, dose: 20.0 mg/kg/injection, schedule: Q01DX011 (ip), vehicle: saline, higher = longer survival",89 % of control
same,T/C,"endpoint: median survival time, dose: 23.0 mg/kg/injection, schedule: Q01DX009 (ip), vehicle: saline, higher = longer survival",121 % of control and 124 % of control
same,T/C,"endpoint: median survival time, dose: 25.0 mg/kg/injection, schedule: Q01DX001 (ip), vehicle: saline, higher = longer survival",98 % of control and 101 % of control
same,T/C,"endpoint: median survival time, dose: 25.0 mg/kg/injection, schedule: Q01DX004 (ip), vehicle: saline, higher = longer survival",154 % of control
same,T/C,"endpoint: median survival time, dose: 26.0 mg/kg/injection, schedule: Q01DX001 (ip), vehicle: saline, higher = longer survival",94 % of control and 95 % of control
same,T/C,"endpoint: median survival time, dose: 39.0 mg/kg/injection, schedule: Q01DX009 (ip), vehicle: saline, higher = longer survival",91 % of control
same,T/C,"endpoint: median survival time, dose: 40.0 mg/kg/injection, schedule: Q01DX001 (ip), vehicle: saline, higher = longer survival",88 % of control
same,T/C,"endpoint: median survival time, dose: 40.0 mg/kg/injection, schedule: Q01DX009 (ip), vehicle: saline, higher = longer survival",222 % of control
same,T/C,"endpoint: median survival time, dose: 43.0 mg/kg/injection, schedule: Q01DX001 (ip), vehicle: saline, higher = longer survival",112 % of control and 117 % of control
same,T/C,"endpoint: median survival time, dose: 44.0 mg/kg/injection, schedule: Q01DX005 (ip), vehicle: saline, higher = longer survival",184 % of control and 233 % of control
same,T/C,"endpoint: median survival time, dose: 44.4 mg/kg/injection, schedule: Q04DX003 (ip), vehicle: saline, higher = longer survival",105 % of control and 224 % of control
same,T/C,"endpoint: median survival time, dose: 50.0 mg/kg/injection, schedule: Q01DX001 (ip), vehicle: saline, higher = longer survival",112 % of control and 117 % of control
same,T/C,"endpoint: median survival time, dose: 50.0 mg/kg/injection, schedule: Q01DX001 (ip), vehicle: water, higher = longer survival",118 % of control
same,T/C,"endpoint: median survival time, dose: 50.0 mg/kg/injection, schedule: Q01DX004 (ip), vehicle: saline, higher = longer survival",225 % of control
same,T/C,"endpoint: median survival time, dose: 50.0 mg/kg/injection, schedule: Q01DX005 (ip), vehicle: saline, higher = longer survival",158 % of control
same,T/C,"endpoint: median survival time, dose: 50.0 mg/kg/injection, schedule: Q04DX003 (sc), vehicle: saline, higher = longer survival",208 % of control and 210 % of control
same,T/C,"endpoint: median survival time, dose: 66.7 mg/kg/injection, schedule: Q04DX003 (ip), vehicle: saline, higher = longer survival",167 % of control and 233 % of control
same,T/C,"endpoint: median survival time, dose: 67.0 mg/kg/injection, schedule: Q01DX005 (ip), vehicle: saline, higher = longer survival",220 % of control
same,T/C,"endpoint: median survival time, dose: 70.0 mg/kg/injection, schedule: Q01DX001 (ip), vehicle: saline, higher = longer survival",108 % of control and 112 % of control
same,T/C,"endpoint: median survival time, dose: 72.0 mg/kg/injection, schedule: Q01DX001 (ip), vehicle: saline, higher = longer survival",117 % of control
same,T/C,"endpoint: median survival time, dose: 80.0 mg/kg/injection, schedule: Q01DX009 (ip), vehicle: saline, higher = longer survival",100 % of control
same,T/C,"endpoint: median survival time, dose: 100.0 mg/kg/injection, schedule: Q01DX001 (ip), vehicle: water, higher = longer survival",190 % of control
same,T/C,"endpoint: median survival time, dose: 100.0 mg/kg/injection, schedule: Q01DX005 (ip), vehicle: saline, higher = longer survival",207 % of control
same,T/C,"endpoint: median survival time, dose: 100.0 mg/kg/injection, schedule: Q04DX003 (ip), vehicle: saline, higher = longer survival",192 % of control and 233 % of control
same,T/C,"endpoint: median survival time, dose: 100.0 mg/kg/injection, schedule: Q08DX002 (ip), vehicle: saline, higher = longer survival",208 % of control
same,T/C,"endpoint: median survival time, dose: 100.0 mg/kg/injection, schedule: Q11DX002 (ip), vehicle: saline, higher = longer survival",163 % of control
same,T/C,"endpoint: median survival time, dose: 150.0 mg/kg/injection, schedule: Q04DX003 (ip), vehicle: saline, higher = longer survival",233 % of control
same,T/C,"endpoint: median survival time, dose: 150.0 mg/kg/injection, schedule: Q07DX002 (ip), vehicle: saline, higher = longer survival",233 % of control
same,T/C,"endpoint: median survival time, dose: 150.0 mg/kg/injection, schedule: Q07DX004 (ip), vehicle: saline, higher = longer survival",221 % of control
same,T/C,"endpoint: median survival time, dose: 150.0 mg/kg/injection, schedule: Q11DX002 (ip), vehicle: saline, higher = longer survival",150 % of control and 165 % of control
same,T/C,"endpoint: median survival time, dose: 200.0 mg/kg/injection, schedule: Q04DX003 (sc), vehicle: saline, higher = longer survival",85 % of control
same,T/C,"endpoint: median survival time, dose: 225.0 mg/kg/injection, schedule: Q01DX001 (ip), vehicle: saline, higher = longer survival",153 % of control
same,T/C,"endpoint: median survival time, dose: 225.0 mg/kg/injection, schedule: Q07DX002 (ip), vehicle: saline, higher = longer survival",173 % of control
same,T/C,"endpoint: median survival time, dose: 225.0 mg/kg/injection, schedule: Q09DX002 (ip), vehicle: saline, higher = longer survival",183 % of control
same,T/C,"endpoint: median survival time, dose: 225.0 mg/kg/injection, schedule: Q11DX002 (ip), vehicle: saline, higher = longer survival",166 % of control and 189 % of control
same,T/C,"endpoint: median survival time, dose: 230.0 mg/kg/injection, schedule: Q01DX001 (ip), vehicle: saline, higher = longer survival",154 % of control
same,T/C,"endpoint: median survival time, dose: 300.0 mg/kg/injection, schedule: Q07DX002 (ip), vehicle: saline, higher = longer survival",173 % of control
same,T/C,"endpoint: median survival time, dose: 300.0 mg/kg/injection, schedule: Q08DX002 (ip), vehicle: saline, higher = longer survival",100 % of control
same,T/C,"endpoint: median survival time, dose: 333.0 mg/kg/injection, schedule: Q01DX001 (ip), vehicle: saline, higher = longer survival",157 % of control and 193 % of control
same,T/C,"endpoint: median survival time, dose: 500.0 mg/kg/injection, schedule: Q01DX001 (ip), vehicle: saline, higher = longer survival",72 % of control
same,T/C,"endpoint: median survival time, dose: 556.0 mg/kg/injection, schedule: Q01DX001 (ip), vehicle: saline, higher = longer survival",47 % of control
same,T/C,"endpoint: median tumor weight (est.), dose: 25.0 mg/kg/injection, schedule: Q01DX009 (ip), vehicle: saline, higher = larger tumour",50 % of control
same,T/C,"endpoint: median tumor weight (est.), dose: 50.0 mg/kg/injection, schedule: Q01DX009 (ip), vehicle: saline, higher = larger tumour",11 % of control and 19 % of control
same,T/C,"endpoint: median tumor weight (est.), dose: 75.0 mg/kg/injection, schedule: Q01DX001 (ip), vehicle: saline, higher = larger tumour",76 % of control
same,T/C,"endpoint: median tumor weight (est.), dose: 103.0 mg/kg/injection, schedule: Q01DX001 (ip), vehicle: saline, higher = larger tumour",38 % of control
same,T/C,"endpoint: median tumor weight (est.), dose: 150.0 mg/kg/injection, schedule: Q01DX001 (ip), vehicle: saline, higher = larger tumour",34 % of control
same,T/C,"endpoint: median tumor weight (est.), dose: 209.0 mg/kg/injection, schedule: Q01DX001 (ip), vehicle: saline, higher = larger tumour",16 % of control
same,T/C,"endpoint: median tumor weight (est.), dose: 300.0 mg/kg/injection, schedule: Q01DX001 (ip), vehicle: saline, higher = larger tumour",2 % of control
same,T/C,"endpoint: median tumor weight (est.), dose: 312.0 mg/kg/injection, schedule: Q01DX001 (ip), vehicle: saline, higher = larger tumour",7 % of control
COC1C(OC(=O)/C=C/C=C/C=C/C=C/C(=O)O)CCC2(CO2)C1C1(C)OC1CC=C(C)C (stereo not given),T/C,[2],82 % of control
same,T/C,"endpoint: mean tumor weight, dose: 50.0 mg/kg/injection, schedule: Q01DX011 (ip), vehicle: saline, higher = larger tumour",38 % of control and 49 % of control
same,T/C,"endpoint: mean tumor weight, dose: 100.0 mg/kg/injection, schedule: Q01DX011 (ip), vehicle: saline, higher = larger tumour",54 % of control
same,T/C,"endpoint: mean tumor weight, dose: 200.0 mg/kg/injection, schedule: Q01DX011 (ip), vehicle: saline, higher = larger tumour",23 % of control
CN(C)CCCN1c2ccccc2Sc2ccc(C(F)(F)F)cc21,T/C,[1],81 % of control
same,T/C,[2],44 % of control
